Measurements: patent publication US20260158157A1, “COMBINATION OF ANTI-HER3 ANTIBODY-DRUG CONJUGATE AND RASG12C INHIBITOR” (DAIICHI SANKYO COMPANY, LIMITED, priority 2023, published 2026)

What was measured:
NCI-H358 cells = experiment: Antitumor test (1): NCI-H358 cells subcutaneously transplanted into nude mice; settings: for notable findings such as weight reduction: NCI-H358 xenograft nude mice, HER3-ADC (1) 3 mg/kg iv and/or RASG12C inhibitor 10 mg/kg orally, 3 weeks
Description: Mouse: Female BALB/c nude mice of 5 to 6 week-old (Charles River Laboratories Japan, Inc.) were used in an experiment.
Measurement and calculation formula: In all studies, the long diameter and the short diameter of a tumor were measured with an electronic digital caliper (CD-15CX, Mitutoyo Corporation) twice a week to calculate the tumor volume (mm^3). The calculation formula was as follows: […]
HER3-ADC (1) was diluted with ABS buffer (10 mM acetate buffer (pH 5.5), 5% sorbitol), and the resultant liquid was administered in an amount of 10 mL/kg to the tail vein.
Sotorasib was dissolved in 2% hydroxypropyl methylcellulose and 1% Tween 80, and the resultant liquid was orally administered in an amount of 10 mL/kg. […] NCI-H358 cells, that is, human lung cancer line purchased from ATCC (American Type Culture Collection) were suspended in 50% Matrigel matrix (Invitrogen), and 3×10^6 cells thus obtained were subcutaneously transplanted into a right side portion of the body of each of the female nude mice, and the resultant mice were randomly grouped 13 days after the transplantation (Day 0). HER3-ADC (1) was administered to the tail vein at a dose of 3 mg/kg on Day 0, Day 7, and Day 14. The RASG12C inhibitors were administered at a dose of 10 mg/kg for 3 weeks once a day and five times a week. Groups each given one of these agents, a group given both, and a solvent administration group as a control group were established.

topoisomerase I = target: T1, topoisomerase I (Homo sapiens, UniProt P11387); settings: reference: Ogitani Y. et al., Clinical Cancer Research 2016; cited from earlier work
T1 sequence (P11387 1-765): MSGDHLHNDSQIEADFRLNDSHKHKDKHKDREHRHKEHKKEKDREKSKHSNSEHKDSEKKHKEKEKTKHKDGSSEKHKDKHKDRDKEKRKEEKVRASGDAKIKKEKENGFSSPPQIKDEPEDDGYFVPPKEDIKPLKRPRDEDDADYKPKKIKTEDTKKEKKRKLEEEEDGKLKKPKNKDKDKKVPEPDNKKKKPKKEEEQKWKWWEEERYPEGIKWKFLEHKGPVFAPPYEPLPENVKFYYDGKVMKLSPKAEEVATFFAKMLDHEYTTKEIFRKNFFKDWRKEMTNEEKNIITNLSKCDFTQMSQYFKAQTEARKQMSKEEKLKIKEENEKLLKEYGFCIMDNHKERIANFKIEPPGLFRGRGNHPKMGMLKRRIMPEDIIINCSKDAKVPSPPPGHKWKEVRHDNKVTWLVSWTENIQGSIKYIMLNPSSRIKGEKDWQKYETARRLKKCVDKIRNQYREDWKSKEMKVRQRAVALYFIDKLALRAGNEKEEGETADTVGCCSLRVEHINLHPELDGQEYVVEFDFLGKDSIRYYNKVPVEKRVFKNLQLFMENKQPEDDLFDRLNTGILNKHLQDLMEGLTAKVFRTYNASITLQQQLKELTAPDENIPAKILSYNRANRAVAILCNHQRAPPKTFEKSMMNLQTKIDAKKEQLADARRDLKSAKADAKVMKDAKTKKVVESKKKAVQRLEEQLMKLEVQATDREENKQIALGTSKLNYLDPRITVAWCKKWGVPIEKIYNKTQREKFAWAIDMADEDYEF

Molecule	notable findings such as weight reduction (NCI-H358 cells)	tumor growth inhibition (TGI), single administration of HER3-ADC (1) (NCI-H358 cells; NCI-H358 xenograft, female nude mice, 3 mg/kg tail vein on Day 0, Day 7 and Day 14, final day of the test)	tumor growth inhibition (TGI), single administration of RASG12C inhibitor (NCI-H358 cells; NCI-H358 xenograft, female nude mice, 10 mg/kg orally once a day, five times a week for 3 weeks, final day of the test)	topoisomerase I inhibitory effect (topoisomerase I)
HER3-ADC (1): anti-HER3 antibody (heavy chain SEQ ID NO: 1, light chain SEQ ID NO: 2) conjugated to exatecan-derivative drug-linker via thioether bond; average drug-to-antibody ratio 7.6	No notable findings such as weight reduction	68%	–	–
C=CC(=O)N1CCN(c2nc(=O)n(-c3c(C)ccnc3C(C)C)c3nc(-c4c(O)cccc4F)c(F)cc23)[C@@H](C)C1 [sotorasib]	anal prolapse	–	39%	–
CC[C@@]1(O)C(=O)OCc2c1cc1n(c2=O)Cc2c-1nc1cc(F)c(C)c3c1c2[C@@H](NC(=O)CO)CC3	–	–	–	confirmed to have topoisomerase I inhibitory effect
